Several values for one entry are separate records, joined by “and”; a condition that tells them apart may be missing. Equal entries are not always repeated. Where two headings read alike, the source gives them in different places.
Legend:
[1] = biological target: T1, APJ (Homo sapiens, UniProt P35414); assay: APJ receptor internalization assay; format: cell-based; conditions: fixed apelin-13 6.23 nM
T1 sequence (P35414 1-380): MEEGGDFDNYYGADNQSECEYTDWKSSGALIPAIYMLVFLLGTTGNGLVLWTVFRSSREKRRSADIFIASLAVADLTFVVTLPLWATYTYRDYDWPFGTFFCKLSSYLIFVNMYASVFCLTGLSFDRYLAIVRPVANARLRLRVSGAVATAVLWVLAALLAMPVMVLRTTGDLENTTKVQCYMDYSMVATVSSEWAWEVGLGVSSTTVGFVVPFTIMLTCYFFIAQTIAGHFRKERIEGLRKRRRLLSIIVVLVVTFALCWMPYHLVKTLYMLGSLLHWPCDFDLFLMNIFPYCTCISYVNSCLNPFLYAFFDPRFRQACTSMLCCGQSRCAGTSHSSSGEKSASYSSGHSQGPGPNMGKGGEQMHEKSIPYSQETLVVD
Protocol: This graph depicts the mean percent inhibition (±SEM) of apelin-13 mediated receptor internalization. Representative of an experiment that was repeated three times with each data point performed in triplicate. Curve fit analysis was performed using nonlinear regression with a 4-point logistic fit (GraphPad Prism5).

[2] = PAMPA permeability; format: in vitro ADME; conditions: for Papp: PAMPA, read-out: PAMPA Pe
Protocol: The PAMPA (Parallel Artificial Membrane Permeability Assay) assay is used as an in vitro model of passive, transcellular permeability. An artificial membrane immobilized on a filter is placed between a donor and acceptor compartment. At the start of the test, drug is introduced in the donor compartment. Following the permeation period, the concentration of drug in the donor and acceptor compartments is measured using UV spectroscopy.

[3] = Plasma stability, human; format: in vitro ADME; conditions: Plasma:1x PBS pH 7.4 1:1, 3 hrs
[4] = Stability in 1x PBS pH 7.4 (plasma stability assay); format: physicochemical; conditions: 1x PBS pH 7.4, 3 hrs
[5] = biological target: T2, kappa opioid receptor (Homo sapiens, UniProt P41145); assay: PDSP GPCR binding assay panel
T2 construct: Psychoactive Drug Screening Program (PDSP), University of North Carolina
T2 sequence (P41145 whole entry): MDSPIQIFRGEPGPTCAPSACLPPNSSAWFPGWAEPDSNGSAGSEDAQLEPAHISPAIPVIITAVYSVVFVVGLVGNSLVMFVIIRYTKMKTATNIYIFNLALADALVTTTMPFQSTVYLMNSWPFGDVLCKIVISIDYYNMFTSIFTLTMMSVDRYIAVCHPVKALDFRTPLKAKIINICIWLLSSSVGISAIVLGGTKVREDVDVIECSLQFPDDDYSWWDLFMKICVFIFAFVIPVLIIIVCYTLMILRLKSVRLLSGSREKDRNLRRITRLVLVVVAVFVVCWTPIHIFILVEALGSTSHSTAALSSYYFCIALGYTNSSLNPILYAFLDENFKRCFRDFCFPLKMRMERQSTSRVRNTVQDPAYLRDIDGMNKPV

[6] = test system: benzodiazepinone receptors; assay: PDSP GPCR binding assay panel
[7] = Aqueous solubility
[8] = Plasma protein binding
[9] = Plasma stability, mouse
[10] = Hepatic toxicity / cytotoxicity; conditions: human, hepatocytes
[11] = test system: human hepatocytes; assay: Hepatic toxicity / cytotoxicity; conditions: Table 1
[12] = Hepatic microsome stability, human
[13] = Hepatic microsome stability, mouse

O=C(Oc1coc(CSc2ncccn2)cc1=O)c1ccc([N+](=O)[O-])cc1 [Compound 6, 4-OXO-6-((PYRIMIDIN-2-YLTHIO)METHYL)-4H-PYRAN-3-YL-4-NITROBENZOATE]
antagonism of apelin-13 induced APJ receptor internalization [1]: antagonized the ability of apelin-13 to induce APJ receptor internalization
PAMPA Pe (×10^−6 cm/s) ([2]; Donor pH 7.4, Acceptor pH 7.4): 271 ×10^−6 cm/s
Papp ([2]; Donor pH 5.0, Acceptor pH 7.4): 195 ×10⁻⁶ cm/s
Papp ([2]; Donor pH 6.2, Acceptor pH 7.4): 240 ×10⁻⁶ cm/s
Permeability (PAMPA) pH 7.4 ([2]; Table 1, pH 7.4): 271.0 × 10^−6 cm/s
Plasma Stability (% Remaining @3 hrs) [3]: 0.26%
Plasma Stability (% Remaining @3 hrs), 1x PBS pH 7.4 ([4]; first value (Human position)): 46.97%
Plasma Stability (% Remaining @3 hrs), 1x PBS pH 7.4 ([4]; second value (Mouse position)): 42.18%
binding activity at kappa opioid receptor [5]: significant activity
binding activity at benzodiazepinone receptors [6]: significant activity
solubility ([7]; 1x PBS, pH 7.4, aqueous buffer): 3.6 µg/mL and 9.3 µM
Aqueous Solubility pH 7.4 ([7]; Table 1, pH 7.4): 25.5 μg/mL
solubility ([7]; aqueous media, pH 5, aqueous buffer): 3 µg/mL and 7.8 µM
solubility ([7]; aqueous media, pH 6.2, aqueous buffer): 3.6 µg/mL and 9.3 µM
solubility ([7]; aqueous media, pH 7.4, aqueous buffer): 9.8 µg/mL and 25 µM
Plasma Protein Binding (mouse) ([8]; mouse): 99.1%
detection in the plasma protein binding assay ([8]; species not given, 18 h incubation): undetectable
Plasma Stability (% Remaining @3 hrs) ([9]; Mouse, Plasma:1x PBS pH 7.4 1:1, 3 hrs): 0.88%
Plasma Stability ([9]; Table 1, species and matrix not given): 42.2%
CC50 [10]: > 50 µM
Cytotoxicity [11]: >50 µM
Hepatic Microsome Stability Human ([12]; Human): 4.19
% remaining at 60 min in human liver homogenates ([12]; human, 60 min): 4.2%
Hepatic Microsome Stability ([13]; Table 1, species not given, equals the mouse value): 4.9%
Hepatic Microsome Stability Mouse ([13]; mouse): 4.89
% remaining at 60 min in mouse liver homogenates ([13]; mouse, 60 min): 4.9%

Reference: patent US20140005181A1, “SMALL MOLECULE ANTAGONISTS OF THE APELIN RECEPTOR FOR THE TREATMENT OF DISEASE” (Sanford-Burnham Medical Research Institute, priority 2012, published 2014)
